In this test the test system is filamentous fungi conidia (spores). Briefly: Fungicidal assay (CFU log reduction). Format: cell-based. Conditions: 8 μM H2O2. The procedure:
A 10^4 CFU/mL conidia load was incubated in yeast extract (YE) medium at 37 °C for and 25 °C for and at 200 rpm for 4 h, and 100 μL was transferred to 900 μL of PBS with peptide (final conidia load = 10^3 CFU/mL). The negative control had no peptides, and for the positive control, we used H2O2 (final concentration of 8 μM). The treated conidia were incubated for an additional 4 h at the same temperature at 200 rpm. Once the second incubation was over, the inoculum suspension was diluted, and 100 μL of both the original and the dilution was spread on Petri plates with PDA with tetracycline (10 μg/mL) and chloramphenicol (25 μg/mL) medium to exclude the growth of bacteria. The plates were incubated at matching temperatures depending on the strain. After 48 h, the CFU/mL was calculated; CFU/mL = number of counted CFU × 10^–n (n = serial dilution).
2 Fungicidal activity of BP100 and P-113 and their derivatives. Spores were counted using a hemocytometer and diluted to […]. After 4 h of incubation with the selected peptides in two different concentrations (25 and 100 μM), samples were diluted and both original and diluted samples were plated. Colonies were counted after 48 h of incubation and are presented as the log reduction of CFU/mL. […] The experiments were repeated 3 times (biological repeats) in triplicate (average ± SEM). […]

With `OO` [H2O2], the “fungicidal activity, positive control” value was “completely eradicated”.

For the origin of these results see PMC12291464, “Modifying Antifungal Peptides as Safe Food Preservatives” (Journal of Agricultural and Food Chemistry, 2025).
